Assay results taken from patent US20100062065A1, “PHARMACEUTICAL COMPOSITION CONTAINING NAPHTHOQUINONE-BASED COMPOUND FOR INTESTINE DELIVERY SYSTEM” (MAZENCE INC., priority 2006, published 2010).
Several values for one entry are separate records, joined by “and”; a condition that tells them apart may be missing. Identical values can stand only once.

Experiments:
[1] = orally administered; cited from earlier work
[2] = Determination of partition coefficients (octanol / phosphate buffer pH 7.4); assay type: physicochemical; conditions: for Partition Coefficient: octanol/phosphate buffer pH 7.4, samples 1-3
Description: Octanol and phosphate buffer (pH 7.4) were saturated with a counter-solvent for 24 hours or more. A given amount of a naphthoquinone-based compound (Compound 1 of Table 1 below) was dissolved in the thus-saturated octanol, mixed with triple-distilled water and stirred using a magnetic stirrer at 200 rpm for 13 hours or more. Samples were taken, filtered through a 0.45 μm RC Membrane filter and diluted with methanol. The diluted sample materials were analyzed by HPLC. A partition coefficient versus an amount of Compound 1 was determined.

[3] = Intestinal absorption, single-pass intestinal perfusion; assay type: in vivo, rats
Description: In order to determine intestinal absorption (%) of a naphthoquinone-based compound, a single-pass intestinal perfusion technique was carried out in internal organs of rats, including jejunum, ileum and large intestine. The steady-state intestinal effective permeability (Peff) can be expressed according to the following equation. Peff=[−Qin·ln(Cout/Cin)]/A • Peff: Steady-state intestinal effective permeability (cm/s) • Qin: Perfusion flow rate (0.4 mL/min) • Cin, Cout: Inlet and fluid-transport-corrected outlet solution concentrations • A: Mass transfer surface area within intestinal segment (2πrL), • r, L: Radius and length of intestinal segment The radius (r) and length (L) of the jejunum, ileum and large intestine used in experiments are as follows: (r: jejunum, 0.21 cm; ileum, 0.22 cm; large intestine, 0.23 cm, and L: 10 cm) The steady-state was confirmed by the ratio of the outlet to inlet concentrations (Cout/Cin) versus time. The steady-state is established when the Cout/Cin ratio of the naphthoquinone-based compound is maintained at a constant value (n=3, error bars with respect to S.D.). Residual amounts of the naphthoquinone-based compound in the above three intestinal organs were measured at different time points. The outlet steady-state concentration of the compound under perfusion was calculated. The results thus obtained are given in Table 4 and FIG. 2, respectively. The effective permeability was measured at 4 points of each intestinal tissue.

Row | SMILES | absorption rate [1] [%] | octanol-solubility higher than water-solubility [2] [fold] | logD ([2]; octanol/phosphate buffer pH 7.4, pH 7.4, average over all amounts and samples, read-out: average partition coefficient) | Partition Coefficient ([2]; 100 μg/mL) | Partition Coefficient ([2]; 200 μg/mL) | Partition Coefficient ([2]; 2000 μg/mL) | Partition Coefficient ([2]; Excess) | average partition coefficient ([2]; pH 7.4) | Peff × 10^−5 ([3]; Duodenum) | Peff × 10^−5 ([3]; Ileum) | Peff × 10^−5 ([3]; Jejunum) | Peff × 10^−5 ([3]; Large intestine)
1 | C[C@H]1COC2=C1C(=O)C(=O)c1c2ccc2c1CCCC2(C)C [cryptotanshinone] | 2.05 | – | – | – | – | – | – | – | – | – | – | –
2 | CC1(C)CCC2=C(O1)c1ccccc1C(=O)C2=O [Compound 1] | – | 100 | 2.3 | 2.17 and 2.02 and 1.99 | 2.40 and 2.20 and 2.24 | 2.59 and 2.62 and 2.58 | 2.65 and 2.05 and 2.08 | * average partition coefficient: 2.299 (σ = 0.255) | 0.79 ± 0.33 10^−5 cm/s | 5.15 ± 1.49 10^−5 cm/s | 2.37 ± 1.17 10^−5 cm/s | 7.82 ± 0.93 10^−5 cm/s
